These results are taken from patent US20190135834A1, “5-SUBSTITUTED AZABENZIMIDAZOLE DERIVATIVE HAVING ???? ACTIVATION ACTION” (Shionogi & Co., Ltd., priority 2016, published 2019).

This experiment addresses T1, Human AMPK α2ß2γ1 (Homo sapiens, UniProt O43741+P54646).
T1 construct: The full length cDNAs of human AMPK ß2 (NM_005399.3) and human AMPK α2 (NM_006252.3); The full length cDNAs of human AMPK ß2 (NM_005399.3); 6xHis (N); made in house; host or cells: Escherichia coli BL21 CodonPlus (DE3)-RIL
The experiment is described as follows: Test Example 2: evaluation of an activator for AMP-activated protein kinase (AMPK), LabChip mobility shift assay with CaMKK2-phosphorylated enzyme. Type of experiment: biochemical. Particulars: for EC150 (compound concentration showing 150% relative to the control (100%)): FL-Peptide 7 substrate, 25° C., 2 hours; for Emax: relative to control (100%), read-out: Emax (maximum rate of increase in activity within the measurement range). As for the experimental part: The full length cDNAs of human AMPK ß2 (NM_005399.3) and human AMPK α2 (NM_006252.3) were inserted into the MCS1 and MCS2 of the pETDuet-1 vector to prepare a human AMPK ß2 and human AMPK α2 (6× His tag at the 5′ terminus) expressing plasmid. The plasmid was cotransfected with an expression plasmid, in which the full length cDNA of human AMPK γ1 (NM_002733.3) had been inserted into pET28b(+), into BL21 CodonPlus (DE3)-RIL to obtain an expression strain. The expression strain was cultured in TB medium, followed by induction with 0.5 mM IPTG, and cultured at 25° C. for 3 hours and then harvested. After ultrasonication, supernatant was collected and applied to Histrap FF column (GE) and RESOURCE Q column (GE) to prepare 12.5 mg of purified sample containing three types of subunit from 1.8 L of broth.
Preparation method of human CaMKK2 used to impart activity to AMPK An expression vector, in which the full length cDNA of human CAMKK ß (NM_172226.1) had been inserted into pGEX-6P-3, was transfected into BL21 Star (DE3). The expression strain was cultured in TB medium, followed by induction with 0.5 mM IPTG, and cultured at 25° C. for 3 hours and then harvested. After ultrasonication, supernatant was collected and applied to GSTrap FF column (GE) to prepare 14 mg of GST-fused CAMKK ß from 720 ml of broth.
Thus, phosphorylation treatment was carried out as pretreatment.
Human AMPK α2ß2γ1 in an amount to give a conversion rate of approximately 10% by reaction for 2 hours, and CaMKK2 in an amount capable of sufficiently imparting activity to AMPK for one hour were mixed in a buffer solution consisting of a 50 mM HEPES-NaOH buffer solution (pH 7.0), 100 mM NaCl, 5 mM magnesium chloride, 0.1% bovine serum albumin, 0.2 mM sodium orthovanadate(V), 1 mM ethylene glycol-bis(2-aminoethyl ether)-N,N,N′,N′-tetraacetic acid (EGTA), 5 mM disodium ß-glycerophosphate, 1 mM dithiothreitol and 0.2 mM ATP, and the resulting liquid was left to stand at 25° C. for 1 to 1.5 hours to sufficiently phosphorylate AMPK.
After that, to the enzyme liquid, which had been subjected to phosphorylation treatment, a compound dissolved in DMSO was added so as to have a 1% DMSO concentration. The resulting liquid was left to stand for 10 minutes.
To the liquid, a substrate solution consisting of a 50 mM HEPES-NaOH buffer solution (pH 7.0), 100 mM NaCl, 10 mM magnesium chloride, 0.1% bovine serum albumin, 0.2 mM sodium orthovanadate(V), 1 mM ethylene glycol-bis(2-aminoethyl ether)-N,N,N′,N′-tetraacetic acid (EGTA), 5 mM disodium ß-glycerophosphate, 2 mM dithiothreitol, 0.4 mM ATP and 3 μM FL-Peptide 7 (manufactured by Caliper Life Sciences, Inc.) was added in equal amount (10 μl in total). The resulting liquid was allowed to react at 25° C. for 2 hours, and 10 μl of 20 mM EDTA was added thereto to stop the reaction.
To detect phosphorylated fluorescent substrates, the reaction mixture was applied to a measuring device, LabChip EZ Reader II manufactured by Caliper Life Science, Inc., for detecting fluorescence by using differences in mobility due to differences in charge. The setting conditions for the device were pressure, −1.5 PSI; upstream voltage, −2250 V; downstream voltage, −400 V; post sample buffer sip time, 40 seconds; final delay, 120 seconds; and peak order, Product First.
A conversion rate was calculated from the peak heights of the obtained substrate and product. The conversion rate when not containing a compound was used as a control, and a concentration dependent curve was made by plotting the rate of increase in activity to the control at each concentration of a compound.

T1 sequence (P54646 whole entry): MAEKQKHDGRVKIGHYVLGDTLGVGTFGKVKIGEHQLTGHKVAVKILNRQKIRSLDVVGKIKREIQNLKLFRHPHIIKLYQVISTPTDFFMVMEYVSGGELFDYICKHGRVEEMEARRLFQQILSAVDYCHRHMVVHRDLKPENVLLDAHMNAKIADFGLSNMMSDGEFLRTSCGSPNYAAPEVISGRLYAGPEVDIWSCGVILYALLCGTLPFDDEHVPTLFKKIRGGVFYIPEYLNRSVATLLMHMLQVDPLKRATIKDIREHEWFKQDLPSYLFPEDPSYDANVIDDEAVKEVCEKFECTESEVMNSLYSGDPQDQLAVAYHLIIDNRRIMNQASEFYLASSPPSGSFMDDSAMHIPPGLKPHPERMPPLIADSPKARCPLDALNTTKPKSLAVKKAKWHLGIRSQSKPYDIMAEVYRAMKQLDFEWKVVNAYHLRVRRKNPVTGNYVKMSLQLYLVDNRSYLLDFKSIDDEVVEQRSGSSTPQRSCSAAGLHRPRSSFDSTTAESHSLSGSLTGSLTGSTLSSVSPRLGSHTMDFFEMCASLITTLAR
T1 sequence (O43741 whole entry): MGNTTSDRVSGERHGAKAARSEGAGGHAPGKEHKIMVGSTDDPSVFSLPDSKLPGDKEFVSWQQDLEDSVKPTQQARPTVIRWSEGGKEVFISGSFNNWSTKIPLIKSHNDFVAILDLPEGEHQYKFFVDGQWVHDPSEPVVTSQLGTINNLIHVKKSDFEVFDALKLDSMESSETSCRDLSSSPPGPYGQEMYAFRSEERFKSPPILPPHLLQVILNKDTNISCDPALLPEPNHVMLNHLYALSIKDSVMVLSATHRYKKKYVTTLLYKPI
T1 sequence (P54619 whole entry partner): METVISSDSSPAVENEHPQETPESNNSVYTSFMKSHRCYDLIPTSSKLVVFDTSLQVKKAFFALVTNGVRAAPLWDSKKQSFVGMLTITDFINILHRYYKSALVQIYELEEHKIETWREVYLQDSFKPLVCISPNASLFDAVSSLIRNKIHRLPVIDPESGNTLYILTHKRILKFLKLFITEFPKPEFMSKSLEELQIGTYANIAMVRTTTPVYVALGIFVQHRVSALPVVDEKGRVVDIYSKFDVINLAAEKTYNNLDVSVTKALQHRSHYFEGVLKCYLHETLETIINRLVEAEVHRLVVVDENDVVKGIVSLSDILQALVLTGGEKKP

For the compound `COCCCc1cnc2c(c1)CCC2Nc1nc2nc(O[C@@H]3CO[C@H]4[C@@H]3OC[C@H]4O)[nH]c2cc1Cl` (single isomer, unassigned) [Compound I-1-10], the “EC150 (compound concentration showing 150% relative to the control (100%))” value is 8.4 nM and the Emax (in general, the maximal effect, on the per cent scale that the assay sets) amounted to 608%.
For the compound `COC/C=C/c1cnc2c(c1)CCC2Nc1nc2nc(O[C@@H]3CO[C@H]4[C@@H]3OC[C@H]4O)[nH]c2cc1Cl` (single isomer, unassigned) [Compound I-1-13], the “EC150 (compound concentration showing 150% relative to the control (100%))” value was 2 nM and the Emax was 604%.
The matching figures for `COC/C=C/c1cc(F)c2c(c1)CCC2Oc1nc2nc(O[C@@H]3CO[C@H]4[C@@H]3OC[C@H]4O)[nH]c2cc1Cl` (single isomer, unassigned) [Compound I-1-19]: 3.5 nM and 404%.
The matching figures for `Cn1cc(-c2cc(F)c3c(c2)CCC3Oc2nc3nc(O[C@@H]4CO[C@H]5[C@@H]4OC[C@H]5O)[nH]c3cc2Cl)cn1` (single isomer, unassigned) [Compound I-1-20]: 4.3 nM and 403%.
`Cn1ccc(-c2cc(F)c3c(c2)CCC3Oc2nc3nc(O[C@@H]4CO[C@H]5[C@@H]4OC[C@H]5O)[nH]c3cc2Cl)cc1=O` (single isomer, unassigned) [Compound I-1-23]: the “EC150 (compound concentration showing 150% relative to the control (100%))” value worked out at 1.3 nM and the Emax was found to be 454%.
The matching figures for `Cn1cc(-c2cc(F)c3c(c2)CCC3Nc2nc3nc(O[C@@H]4CO[C@H](CO)C4)[nH]c3cc2Cl)cn1` (single isomer, unassigned) [Compound I-1-29]: 1.9 nM and 426%.
The matching figures for `O[C@@H]1CO[C@H]2[C@@H]1OC[C@H]2Oc1nc2nc(NC3CCc4cc(Br)cnc43)c(Cl)cc2[nH]1` (stereo partly drawn) [Compound I-1-4]: 11 nM and 547%.
On to `OC/C=C/c1cnc2c(c1)CCC2Nc1nc2nc(O[C@@H]3CO[C@H]4[C@@H]3OC[C@H]4O)[nH]c2cc1Cl` (stereo partly drawn) [Compound I-1-6], for which the “EC150 (compound concentration showing 150% relative to the control (100%))” value is recorded as 6.8 nM and the Emax was found to be 516%.
For the compound `Cn1cc(-c2cnc3c(c2)CCC3Nc2nc3nc(O[C@@H]4CO[C@H]5[C@@H]4OC[C@H]5O)[nH]c3cc2Cl)cn1` (stereo partly drawn) [Compound I-1-7], the “EC150 (compound concentration showing 150% relative to the control (100%))” value is recorded as 1.6 nM and the Emax was 614%.
Consider `COCCOc1cnc2c(c1)CCC2Nc1nc2nc(O[C@@H]3CO[C@H]4[C@@H]3OC[C@H]4O)[nH]c2cc1Cl` (stereo partly drawn) [Compound I-1-11], for which the “EC150 (compound concentration showing 150% relative to the control (100%))” value is listed as 9.8 nM and the Emax turned out to be 606%.
The matching figures for `COCCNc1cnc2c(c1)CCC2Nc1nc2nc(O[C@@H]3CO[C@H]4[C@@H]3OC[C@H]4O)[nH]c2cc1Cl` (stereo partly drawn) [Compound I-1-14]: 33 nM and 371%.
The matching figures for `Cn1cc(-c2cnc3c(c2)CCC3Oc2nc3nc(O[C@@H]4CO[C@H]5[C@@H]4OC[C@H]5O)[nH]c3cc2Cl)cn1` (stereo partly drawn) [Compound I-1-15]: 10 nM and 388%.
For `COC/C=C/c1cc(F)c2c(c1)CCC2Nc1nc2[nH]c(O[C@@H]3CO[C@H](CO)C3)nc2cc1Cl` (stereo partly drawn) [Compound I-1-24] the same measures were 25 nM and 423%.
For the compound `OCCOc1cc(F)c2c(c1)CCC2Nc1nc2nc(O[C@@H]3CO[C@H]4[C@@H]3OC[C@H]4O)[nH]c2cc1Cl` (stereo partly drawn) [Compound I-1-32], the “EC150 (compound concentration showing 150% relative to the control (100%))” value turned out to be 2.3 nM and the Emax was 389%.
With `O[C@@H]1CO[C@H]2[C@@H]1OC[C@H]2Oc1nc2nc(NC3CCc4cc(OC5CCOCC5)cc(F)c43)c(Cl)cc2[nH]1` (stereo partly drawn) [Compound I-1-35], the “EC150 (compound concentration showing 150% relative to the control (100%))” value was 4.3 nM and the Emax worked out at 402%.
